The values below come from patent publication US11179390B2, “Subcutaneous administration of a P2Y12 receptor antagonist” (Idorsia Pharmaceuticals Ltd, priority 2017, dated 2021).

Each structure is given as a SMILES string. Values joined by “and” are separate entries in the source; they are usually repeats but may differ in a detail not shown here. Equal values may be shown once. Where a name gives a salt, the structure may show the parent alone.

For test [1], the system named is ADP-induced AF488-Fibrinogen binding on mouse platelets. The test is described as follows: AF488-Fibrinogen binding assay on whole blood after subcutaneous administration of P2Y12 receptor antagonists. It is filed as in vivo, mouse (male Balb/c). An excerpt: In-Vivo Measurements of Time Dependent Platelet Inhibition after Subcutaneous Administration of P2Y12 Receptor Antagonists:
Male Balb/c mice were purchased from Charles River laboratories (Sulzfeld, Germany). All animals were maintained under identical conditions in accordance with the guidelines of the Basel-Landschaft cantonal veterinary office. Husbandry was accomplished in professional animal housing facilities, which provided group-cages, standard diet/water ad libitum, and standard illumination and climate conditions. The technical assistants performed at least one inspection per day. Sufficient time was provided for the animals to be accustomed to the experimental environment. Stress reduction was provided also by enrichment of cages, and providing the possibility to retire to dark housings (taking advantage of the color blindness of albino mice in the red range of the light spectrum). Inside the red housing the animals have the impression of being in the dark, while this housing remains visible to normal human vision.
Compound 1 hydrochloride, 0.2 mg/kg (respectively 5 mL/kg)
Elinogrel, 30 mg/kg (respectively 5 mL/kg)
Cangrelor, 0.2 mg/kg (respectively 5 mL/kg)
After an acclimatization period of at least 7 days, mice were anesthetized with Isoflurane (2-5%). The animals were then placed on a thermostatically-controlled heating table to maintain body temperature at 36-38° C. A polyurethane catheter (BTPU-027) was inserted into the right jugular vein and advanced into the vena cava for infusion of Heparin and to collect blood. […] Therefore Heparin (4000 U/kg/2.5 mL) was intravenously injected to prevent blood from coagulation.
Two minutes after the injection of Heparin, 60 μL of whole blood was collected via the vena cava catheter (baseline). […] 10, 20, 30, 40 and 60 minutes after the subcutaneous injection of the test compounds, 60 μL of whole blood were collected via the vena cava catheter for the fibrinogen binding assay.
(§1) This assay is particularly well adapted for reliable studies of the effect of P2Y12 antagonists on mouse platelets under in vitro and in vivo conditions. The assay allows to measure ADP-induced AF488-Fibrinogen binding on mouse platelets in only 6 μL whole blood and without washing steps.
(§2) Next, 10 μL of AF488-Fibrinogen (to give 0.5 mg/mL final concentration) were added followed by incubation of 5 minutes. To induce AF488-Fibrinogen binding, the platelets were then incubated with 10 μL ADP (to give 20 μM final concentration) for 5 minutes. In addition, an incubation with a platelet specific Allophycocyanin (APC) anti-Mouse CD61 (integrin beta 3) antibody (clone 2C9.G2) was performed for 10 minutes. The platelets were then fixed by addition of 34 μL cold paraformaldehyde solution (to give 0.1% final concentration) and stored at 4° C. for about 20 minutes. The samples were finally diluted with 1.8 mL cold PBS and put on hold at 4° C. for at least 2 hours, time necessary for gently red blood cell lysis, before measuring by flow cytometry.
Flow cytometry was performed using a FACSCanto II instrument (BD Bioscience). The setting of fluorescence compensation was not required due to the use of two different lasers.
Platelets were first detected using the platelet specific fluorescence signal of APC-CD61 (APC-settings for fluorescence emission peak at 660 nm). The platelet population was then gated using forward-scatter (FSC) and side-scatter (SSC) and their FITC-labeled Fibrinogen signal (FITC-settings for fluorescence emission peak at 525 nm) was quantitated as Mean Fluorescence Intensity (MFI) of 5000 platelets. For each sample, the MFI from corresponding nonspecific sample was subtracted.

In test [2] the test system is ADP-induced AF488-Fibrinogen binding on platelets. The test is described as follows: In vitro inhibition of ADP-induced AF488-Fibrinogen binding (nonspecific signal control). It is filed as cell-based. The conditions noted are these: Mus musculus, Platelet, 0.25 h; 2 μM final concentration in diluted blood, 15 minutes at RT, 20 μM ADP; prior experiments. How it is done:
as §1
as §2, with “The blood was first incubated with 4 μL vehicle or 4 μL Compound 1 hydrochloride (to give 2 μM final concentration in diluted blood) for 15 minutes at RT. This concentration of Compound 1 hydrochloride was determined in prior experiments to inhibit 100% of ADP-induced AF488-Fibrinogen binding on platelets and represents the nonspecific signal. Next,” for “Next,”

For the compound `CNc1cc2[nH]c(=O)n(-c3ccc(NC(=O)NS(=O)(=O)c4ccc(Cl)s4)cc3)c(=O)c2cc1F` [Elinogrel], the “Mean Fluorescence Intensities of AF488-Fibrinogen binding to platelets” value in test [1] (30 mg/kg s.c., 10 min after injection) was 4403 MFI and 4712 MFI and 3842 MFI and 3840 MFI; in test [1] (30 mg/kg s.c., 20 min after injection), 2374 MFI and 3847 MFI and 2177 MFI and 4078 MFI; in test [1] (30 mg/kg s.c., 40 min after injection), 1644 MFI and 1768 MFI and 1652 MFI and 2619 MFI; in test [1] (30 mg/kg s.c., 60 min after injection), 2034 MFI and 1503 MFI and 1515 MFI and 2191 MFI; in test [1] (30 mg/kg s.c., time 0 min (baseline, before injection)), 8124 MFI and 5370 MFI and 7045 MFI and 7097 MFI.
Turning to `CCCCOC(=O)N1CCN(C(=O)[C@H](CP(=O)(O)O)NC(=O)c2cc(N3CC[C@H](OC)C3)nc(-c3ccccc3)n2)CC1` [Compound 1 hydrochloride, ((R)-3-(4-(butoxycarbonyl)piperazin-1-yl)-2-(6-((S)-3-methoxypyrrolidin-1-yl)-2-phenylpyrimidine-4-carboxamido)-3-oxopropyl)phosphonic acid hydrochloride], testing at 2 µM in test [2] gave an inhibition of 100%.
As for `CSCCNc1nc(SCCC(F)(F)F)nc2c1ncn2[C@@H]1O[C@H](COP(=O)(O)OP(=O)(O)C(Cl)(Cl)P(=O)(O)O)[C@@H](O)[C@H]1O` [Cangrelor], the “Mean Fluorescence Intensities of AF488-Fibrinogen binding to platelets” value in test [1] (0.2 mg/kg s.c., 10 min after injection) was 1596 MFI and 1628 MFI and 2550 MFI; in test [1] (0.2 mg/kg s.c., 20 min after injection) it was 713 MFI and 1364 MFI and 1012 MFI; in test [1] (0.2 mg/kg s.c., 40 min after injection), 765 MFI and 732 MFI and 921 MFI; in test [1] (0.2 mg/kg s.c., 60 min after injection), 1048 MFI and 682 MFI and 961 MFI; in test [1] (0.2 mg/kg s.c., time 0 min (baseline, before injection)) it was 6200 MFI and 7453 MFI and 5476 MFI.
